Each structure is given as a SMILES string.

The test has as its system rat liver microsomes (RLMs). Put plainly: Michaelis-Menten kinetics of pyrotinib metabolism in RLMs. Format: in vitro ADME, Sprague-Dawley (SD) rat. The conditions noted are these: pyrotinib 0.5–25 μM in RLMs. How it is done: The rats were anesthetized with 10% chloral hydrate after 12 h of starvation. […] The rat liver tissue was then accurately removed and transferred to Petri dishes at 0–4°C. The tissues were homogenized in 0.15 mol/L KCl-PBS buffer and stored at 4°C. The homogenate (CR30NX, Eppendorf, Germany) was centrifuged at 9000 rpm at 4°C for 30 min. The supernatant was transferred to another tube and was centrifuged at 105000 rpm at 4°C for 60 min. The precipitate containing liver microsomes was removed and suspended in 0.15 mol/L KCl-PBS buffer (containing 0.25 mol/L sucrose) and stored at −80°C for later use. The liver microsomal concentration was 8.838 mg/ml after the determination with the BCA protein quantification kit (Thermo Scientific, Waltham, MA, United States). […]
GraphPad Prism 7.0 software (GraphPad Software Inc.) was used to calculate the enzyme kinetic parameters of substrates which include Vmax, Km, IC50, Ki, and αKi values. […] The PK characteristics, maximal plasma concentration (Cmax), time to peak plasma concentration (Tmax), apparent volume of distribution (Vz/F), area under the plasma concentration-time curve (AUC), elimination half-life (t1/2), plasma clearance (Cl/F), and mean residence time (MRT), were calculated using DAS (Drug and Statistics) software (Version 3.2.8, The People’s Hospital of Lishui, China). […]

For the compound `CCOc1cc2ncc(C#N)c(Nc3ccc(OCc4ccccn4)c(Cl)c3)c2cc1NC(=O)/C=C/[C@H]1CCCN1C` [pyrotinib, Pyrotinib], the Michaelis-Menten constant (Km) – broadly, the substrate concentration at which the rate is half of its maximum – is 4.09 µM and the Vmax is 58.33 pmol/min/mg protein.

The record behind these values is article PMC9490176 (Frontiers in Pharmacology, 2022).
